Key:
Format in all cases: cell-based, human
Aβ1–40 peptide secretion = assay: Aβ1–40 secretion in cell medium by ELISA; settings: Homo sapiens; SY5Y-APP^WT cells, 24 h treatment; mean ± SD of at least three experiments in triplicate; read-out: Aβ1–40 IC50
Method: (§1) The final and selected intermediate compounds were evaluated for their ability to modulate APP processing in the SH-SY5Y human neuroblastoma cell line stably expressing the neuronal isoform of human wild-type APP^695 (SY5Y-APP^WT), a well-established model for the study of APP metabolism. APP carboxy-terminal fragments (αCTFs and AICD) levels were assessed by Western blotting (WB). The effect of the reference and test compounds on αCTFs and AICD is expressed as the intensity of corresponding WB bands. The concentration of compounds able to increase 20-times αCTFs and AICD (C20) when compared to the control condition was calculated. Selected compounds were also evaluated for their ability to modulate the secretion of soluble APP fragments (sAPPα and sAPPβ). Aβ1–x levels (Aβ1–40 and Aβ1–42) after treatment with the reference and tested compounds were measured in the cell media by ELISA (Table 1). […] Selected hit compounds were then further evaluated for their ability to decrease the level of N-truncated Aβ peptides (Aβx–38, Aβx–40, and Aβx–42).
(§2) The human neuroblastoma cell line SY5Y-APP^695WT was maintained in Dulbecco’s modified Eagle medium (DMEM, high glucose, pyruvate—GIBCO, Life Technologies, Carlsbad, CA, USA) supplemented with 10% fetal bovine serum, 2 mM L-glutamine, 1 mM non-essential amino acids and penicillin/streptomycin (GIBCO, Life Technologies, Carlsbad, CA, USA) at 37 °C in a 5% CO2 humidified incubator [36]. For compound treatment, a 10 mM stock solution was diluted in freshly supplemented DMEM medium to obtain the precise final concentration of the drug. Cells were plated at a density of 5 × 10^5 cells per well into 12-well plates and cultured with 1 mL supplemented DMEM cell medium for 24 h before compound exposure. The following day, the cell medium was replaced with fresh medium containing the compounds diluted at the indicated concentrations. Cells were treated for 24 h. At the end of the treatments, the cell medium was collected and kept at −80 °C until use, cells were rinsed once with PBS and extracted in 100 µL of Laemmli buffer (10 mM Tris, 20% glycerol, and 2% sodium dodecyl sulfate) using a cell-scraper. The cell lysate was further sonicated (30 pulses of 0.5 s, 60 Hz) for 5 min. Total protein concentration was determined using the Pierce BCA Protein Assay Kit (Thermo Scientific, Waltham, MA, USA) according to the manufacturer’s instructions. Samples were stored at −80 °C until analysis.
(§3) Conditioned media of SY5Y-APP^695WT collected at the end of treatments were centrifuged at 1000× g for 5 min to eliminate cell debris.
(§4) Aβ1–40/Aβ1–42 peptides, Aβx–38/Aβx–40/Aβx–42, and sAPPα/sAPPβ concentrations in pg/mL were determined, respectively, using amyloid-beta 40 and 42 Human ELISA Kits (Invitrogen), the V-PLEX Plus Aβ Peptide Panel 1 (4G8) Kit (Meso Scale Diagnostics, MSD R©, Rockville, MD, USA), and the sAPPα/sAPPβ Multiplex Kit (Meso Scale Diagnostics, MSD R©, Rockville, MD, USA) according to the manufacturer’s instructions.

Aβ1–42 peptide secretion = assay: Aβ1–42 secretion in cell medium by ELISA; settings: Homo sapiens; SY5Y-APP^WT cells, 24 h treatment; mean ± SD of at least three experiments in triplicate
Method: as §1, §2, §3, §4

[1] = test system: αCTF (APP carboxy-terminal fragment); assay: αCTF level by Western blotting in SY5Y-APP^WT cells; settings: Homo sapiens; concentration increasing αCTF 20-fold vs untreated control; SY5Y-APP^WT cells; read-out: αCTF (C20)
Method: as §1, §2
(§5) Cell protein lysates were prepared for Western blot analysis by diluting the sample with 1 volume of NuPAGE® lithium dodecyl sulfate (LDS) 2X sample buffer supplemented with 20% NuPAGE® sample reducing agents (Invitrogen). Samples were heated for 10 min at 100 °C. Ten µg of total proteins per well were loaded onto precast 4–12% Criterion XT Bis-Tris polyacrylamide gels (Bio-Rad) and electrophoresis was achieved after applying a tension of 150 V for 90 min using a Criterion electrophoresis cell with the NuPAGE® MOPS SDS running buffer (1X). Proteins were transferred to a nitrocellulose membrane of […] pore size (G&E Healthcare, Madison, WI, USA) using the Criterion blotting system and applying a tension of 100 V for 45 min. To resolve proteins of low molecular weights such as carboxy-terminal fragments of APP, 12% Criterion XT Bis-Tris polyacrylamide gels (Bio-Rad, Hercules, CA, USA) were used, and electrophoresis was performed for 70 min at 150 V in a NuPAGE® MES SDS running buffer (1X). Proteins were transferred to a nitrocellulose membrane of 0.2 µm pore size (G&E Healthcare, Madison, WI, USA) at 100 V for 40 min. Molecular weight calibration was achieved using molecular weight markers (Novex and Magic Marks, Life Technologies, Carlsbad, CA, USA). Protein transfer and quality were determined by a reversible Ponceau Red coloration (0.2% xylidine Ponceau Red and 3% trichloroacetic acid). […]

[2] = test system: AICD (APP intracellular domain); assay: AICD level by Western blotting in SY5Y-APP^WT cells; settings: Homo sapiens, concentration increasing AICD 20-fold vs untreated control, read-out: AICD (C20)
Method: as §1, §2, §5

in vitro = settings: human
Method: Cytotoxicity was measured using 3-(4,5-dimethylthiazol-2-yl)-5-(3-carboxymethoxyphenyl)-2-(4-sulfophenyl)-2H-tetrazolium (MTS) tests. SY5Y-APP^695WT cells were plated in a 96-well plate at 3 × 10^4 cells per well and allowed to attach for 24 h. Cells were then incubated for 72 h with 100 µL of DMEM with 10% SVF containing (or not) the defined concentration of drugs. Cytotoxicity was determined by using the colorimetric MTS assay (Cell Titer 96® Aqueous One Solution Cell Proliferation Assay-MTS Promega, Madison, WI, USA) according to the manufacturer’s instructions. Absorbance was read at 490 nm.

CN(C)CCCc1ccc(-c2nn(-c3ccc(CO)cc3)cc2CN(C)C)cc1 [Compound 16, [4-[4-(Dimethylaminomethyl)-3-[4-[3-(dimethylamino)propyl]phenyl] Pyrazol-1-yl]phenyl]methanol]
IC50 (Aβ1–40 peptide secretion): 6.2 ± 0.6 µM
IC50 (Aβ1–42 peptide secretion): 6.5 ± 1.1 µM
EC (20-fold increase) [1]: 3.6 µM
EC (20-fold increase) [2]: 4.6 µM
CC50 at 72 h (in vitro): 23 µM

CN(C)CCCc1ccc(-c2nn(-c3ccc(CO)cc3)cc2CCCN(C)C)cc1 [Compound 17, [4-[4-[3-(Dimethylamino)propyl]-3-[4-[3-(dimethylamino)propyl]phenyl] Pyrazol-1-yl]phenyl]methanol]
IC50 (Aβ1–40 peptide secretion): 4.8 ± 1.2 µM
IC50 (Aβ1–42 peptide secretion): 5.4 ± 2.4 µM
EC (20-fold increase) [1]: 2 µM
EC (20-fold increase) [2]: 3.6 µM
CC50 at 72 h (in vitro): 34 µM

CN(C)CCCc1ccc(-c2nn(-c3ccc(CN(C)C)cc3)cc2CCCN(C)C)cc1 [Compound 25, 3-[4-[1-[4-(Dimethylaminomethyl)phenyl]-4-[3-(dimethylamino)propyl] Pyrazol-3-yl]phenyl]-N,N-dimethyl-propan-1-amine]
IC50 (Aβ1–40 peptide secretion): 2.9 ± 0.1 µM
IC50 (Aβ1–42 peptide secretion): 3.2 ± 1 µM
EC (20-fold increase) [1]: 1 µM
EC (20-fold increase) [2]: 1.2 µM
CC50 at 72 h (in vitro): > 100 µM

CN(C)CCCc1ccc(-c2nn(-c3cccc(CN(C)C)c3)cc2CN(C)C)cc1 [Compound 26, 3-[4-[4-(Dimethylaminomethyl)-1-[3-(dimethylaminomethyl)phenyl] Pyrazol-3-yl]phenyl]-N,N-dimethyl-propan-1-amine]
IC50 (Aβ1–40 peptide secretion): 1.6 ± 0.1 µM
IC50 (Aβ1–42 peptide secretion): 2.4 ± 0.7 µM
EC (20-fold increase) [1]: 1.3 µM
EC (20-fold increase) [2]: 1.8 µM
CC50 at 72 h (in vitro): > 100 µM

CN(C)CCCc1ccc(-c2nn(-c3cccc(CN(C)C)c3)cc2CCCN(C)C)cc1 [Compound 27, 3-[4-[1-[3-(Dimethylaminomethyl)phenyl]-4-[3-(dimethylamino)propyl] Pyrazol-3-yl]phenyl]-N,N-dimethyl-propan-1-amine]
IC50 (Aβ1–40 peptide secretion): 2.6 ± 0.1 µM
IC50 (Aβ1–42 peptide secretion): 3.8 ± 0.4 µM
EC (20-fold increase) [1]: 1.3 µM
EC (20-fold increase) [2]: 1.6 µM
CC50 at 72 h (in vitro): > 100 µM

CN(C)CCCc1ccc(-c2nn(-c3ccc(CN4CCN(C)CC4)cc3)cc2CN(C)C)cc1 [Compound 28, 3-[4-[4-(Dimethylaminomethyl)-1-[4-[(4-methylpiperazin-1-yl)methyl] Phenyl]pyrazol-3-yl]phenyl]-N,N-dimethyl-propan-1-amine]
IC50 (Aβ1–40 peptide secretion): 1.9 ± 0.1 µM
IC50 (Aβ1–42 peptide secretion): 2.4 ± 0.7 µM
EC (20-fold increase) [1]: 1.2 µM
EC (20-fold increase) [2]: 1.7 µM
CC50 at 72 h (in vitro): > 100 µM

CN(C)CCCc1ccc(-c2nn(-c3ccc(CN4CCN(C)CC4)cc3)cc2CCCN(C)C)cc1 [Compound 29, 3-[4-[4-[3-(Dimethylamino)propyl]-1-[4-[(4-methylpiperazin-1-yl) Methyl]phenyl]pyrazol-3-yl]phenyl]-N,N-dimethyl-propan-1-amine]
IC50 (Aβ1–40 peptide secretion): 3.4 ± 0.1 µM
IC50 (Aβ1–42 peptide secretion): 5 ± 0.1 µM
EC (20-fold increase) [1]: 1 µM
EC (20-fold increase) [2]: 2 µM
CC50 at 72 h (in vitro): > 100 µM

CN(C)CCCc1ccc(-c2nn(-c3cccc(CN4CCN(C)CC4)c3)cc2CN(C)C)cc1 [Compound 30, 3-[4-[4-(Dimethylaminomethyl)-1-[3-[(4-methylpiperazin-1-yl)methyl] Phenyl]pyrazol-3-yl]phenyl]-N,N-dimethyl-propan-1-amine]
IC50 (Aβ1–40 peptide secretion): 2.2 ± 0.3 µM
IC50 (Aβ1–42 peptide secretion): 3.8 ± 0.1 µM
EC (20-fold increase) [1]: 1.2 µM
EC (20-fold increase) [2]: 1.6 µM
CC50 at 72 h (in vitro): > 100 µM

CN(C)CCCc1ccc(-c2nn(-c3cccc(CN4CCN(C)CC4)c3)cc2CCCN(C)C)cc1 [Compound 31, 3-[4-[4-[3-(Dimethylamino)propyl]-1-[3-[(4-methylpiperazin-1-yl)methyl] Phenyl]pyrazol-3-yl]phenyl]-N,N-dimethyl-propan-1-amine]
IC50 (Aβ1–40 peptide secretion): 4 ± 0.6 µM
IC50 (Aβ1–42 peptide secretion): 5.8 ± 0.6 µM
EC (20-fold increase) [1]: 1 µM
EC (20-fold increase) [2]: 1.5 µM
CC50 at 72 h (in vitro): > 100 µM

Cc1cn(-c2cccc(CO)c2)nc1-c1ccc(CN(C)C)cc1 [Compound 48, [3-[3-[4-(Dimethylaminomethyl)phenyl]-4-methyl-pyrazol-1-yl]phenyl] Methanol]
IC50 (Aβ1–40 peptide secretion): > 10 µM
IC50 (Aβ1–42 peptide secretion): > 10 µM
CC50 at 72 h (in vitro): 24 µM

Cc1cn(-c2cccc(CO)c2)nc1-c1cccc(CN(C)CCCN(C)C)c1 [Compound 58, [3-[3-[3-[[3-(Dimethylamino)propyl-methyl-amino]methyl]phenyl]-4-methyl-pyrazol-1-yl]phenyl]methanol]
IC50 (Aβ1–40 peptide secretion): 3.3 ± 1.3 µM
IC50 (Aβ1–42 peptide secretion): 3.5 ± 0.7 µM
EC (20-fold increase) [1]: > 10 µM
EC (20-fold increase) [2]: 7.9 µM
CC50 at 72 h (in vitro): 20 µM

Cc1cn(-c2cccc(CN(C)C)c2)nc1-c1ccc(CN(C)C)cc1 [Compound 61, {[4-(1-{3-[(Dimethylamino)methyl]phenyl}-4-methyl-1H-pyrazol-3-yl)phenyl]methyl}dimethylamine]
IC50 (Aβ1–40 peptide secretion): 3.9 ± 0.3 µM
IC50 (Aβ1–42 peptide secretion): 4.1 ± 2.1 µM
EC (20-fold increase) [1]: 2.7 µM
EC (20-fold increase) [2]: 2.7 µM
CC50 at 72 h (in vitro): 27 µM

Cc1cn(-c2cccc(CN3CCN(C)CC3)c2)nc1-c1ccc(CN(C)C)cc1 [Compound 62, Dimethyl({[4-(4-methyl-1-{3-[(4-methylpiperazin-1-yl)methyl]phenyl}-1H-pyrazol-3-yl)phenyl]methyl})amine]
IC50 (Aβ1–40 peptide secretion): 2.4 ± 0.2 µM
IC50 (Aβ1–42 peptide secretion): 3.2 ± 0.8 µM
EC (20-fold increase) [1]: 2 µM
EC (20-fold increase) [2]: 3.5 µM
CC50 at 72 h (in vitro): 11 µM

Cc1cn(-c2cccc(CN(C)CCCN(C)C)c2)nc1-c1ccc(CN(C)C)cc1 [Compound 63, [(4-{1-[3-({[3-(Dimethylamino)propyl](methyl)amino}methyl)phenyl]-4-methyl-1H-pyrazol-3-yl}phenyl)methyl]dimethylamine]
IC50 (Aβ1–40 peptide secretion): 2 ± 0.2 µM
IC50 (Aβ1–42 peptide secretion): 2.7 ± 0.2 µM
EC (20-fold increase) [1]: 1.2 µM
EC (20-fold increase) [2]: 1.5 µM
CC50 at 72 h (in vitro): 13 µM

Cc1cn(-c2cccc(CN(C)C)c2)nc1-c1cccc(CN(C)C)c1 [Compound 64, 1-[3-[1-[3-(Dimethylaminomethyl)phenyl]-4-methyl-pyrazol-3-yl]phenyl]-N,N-dimethylmethanamine]
IC50 (Aβ1–40 peptide secretion): 3.8 ± 0.2 µM
IC50 (Aβ1–42 peptide secretion): 4.1 ± 1.6 µM
EC (20-fold increase) [1]: 3.8 µM
EC (20-fold increase) [2]: 4.9 µM
CC50 at 72 h (in vitro): > 100 µM
